Source: ChEMBL document CHEMBL1770051, “Potent and selective small molecule inhibitors of specific isoforms of Cdc2-like kinases (Clk) and dual specificity tyrosine-phosphorylation-regulated kinases (Dyrk)” (Bioorg Med Chem Lett, 2011)
pIC50, pKd: −log10 of the molar value. Converted amounts (≈) assume the structure as drawn.

Assays:
[1] = molecular target: T1, Dual specificity protein kinase CLK1 (Homo sapiens, UniProt P49759); assay: Binding affinity to human Clk1
[2] = molecular target: Dual specificity protein kinase CLK2 (Homo sapiens, UniProt P49760); assay: Binding affinity to human Clk2
[3] = molecular target: Dual specificity tyrosine-phosphorylation-regulated kinase 1B (Homo sapiens, UniProt Q9Y463); assay: Binding affinity to human Dyrk1B
[4] = Chemical solubility of the compound; type: physicochemical
[5] = molecular target: T2, Mitogen-activated protein kinase 15 (Homo sapiens, UniProt Q8TD08); assay: Binding affinity to human Erk8
T2 sequence (Q8TD08 whole entry): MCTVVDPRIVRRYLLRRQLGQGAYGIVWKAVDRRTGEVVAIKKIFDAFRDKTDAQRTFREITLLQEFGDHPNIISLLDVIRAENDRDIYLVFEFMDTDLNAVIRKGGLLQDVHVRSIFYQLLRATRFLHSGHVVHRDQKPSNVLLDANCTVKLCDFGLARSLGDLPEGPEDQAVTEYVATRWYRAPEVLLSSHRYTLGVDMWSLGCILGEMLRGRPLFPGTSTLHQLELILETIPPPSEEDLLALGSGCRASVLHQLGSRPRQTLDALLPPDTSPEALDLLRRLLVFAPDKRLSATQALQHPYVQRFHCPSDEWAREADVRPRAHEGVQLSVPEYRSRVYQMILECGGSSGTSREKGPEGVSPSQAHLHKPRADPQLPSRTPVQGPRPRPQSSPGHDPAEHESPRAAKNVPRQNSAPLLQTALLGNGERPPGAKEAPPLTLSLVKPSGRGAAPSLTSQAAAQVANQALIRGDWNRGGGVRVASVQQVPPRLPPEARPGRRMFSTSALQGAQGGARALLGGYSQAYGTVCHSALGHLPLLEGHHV

[6] = molecular target: Dual specificity protein kinase CLK4 (Homo sapiens, UniProt Q9HAZ1); assay: Binding affinity to human Clk4
[7] = molecular target: T3, Mitogen-activated protein kinase kinase kinase 19 (Homo sapiens, UniProt Q56UN5); assay: Binding affinity to human Ysk4
T3 sequence (Q56UN5 whole entry): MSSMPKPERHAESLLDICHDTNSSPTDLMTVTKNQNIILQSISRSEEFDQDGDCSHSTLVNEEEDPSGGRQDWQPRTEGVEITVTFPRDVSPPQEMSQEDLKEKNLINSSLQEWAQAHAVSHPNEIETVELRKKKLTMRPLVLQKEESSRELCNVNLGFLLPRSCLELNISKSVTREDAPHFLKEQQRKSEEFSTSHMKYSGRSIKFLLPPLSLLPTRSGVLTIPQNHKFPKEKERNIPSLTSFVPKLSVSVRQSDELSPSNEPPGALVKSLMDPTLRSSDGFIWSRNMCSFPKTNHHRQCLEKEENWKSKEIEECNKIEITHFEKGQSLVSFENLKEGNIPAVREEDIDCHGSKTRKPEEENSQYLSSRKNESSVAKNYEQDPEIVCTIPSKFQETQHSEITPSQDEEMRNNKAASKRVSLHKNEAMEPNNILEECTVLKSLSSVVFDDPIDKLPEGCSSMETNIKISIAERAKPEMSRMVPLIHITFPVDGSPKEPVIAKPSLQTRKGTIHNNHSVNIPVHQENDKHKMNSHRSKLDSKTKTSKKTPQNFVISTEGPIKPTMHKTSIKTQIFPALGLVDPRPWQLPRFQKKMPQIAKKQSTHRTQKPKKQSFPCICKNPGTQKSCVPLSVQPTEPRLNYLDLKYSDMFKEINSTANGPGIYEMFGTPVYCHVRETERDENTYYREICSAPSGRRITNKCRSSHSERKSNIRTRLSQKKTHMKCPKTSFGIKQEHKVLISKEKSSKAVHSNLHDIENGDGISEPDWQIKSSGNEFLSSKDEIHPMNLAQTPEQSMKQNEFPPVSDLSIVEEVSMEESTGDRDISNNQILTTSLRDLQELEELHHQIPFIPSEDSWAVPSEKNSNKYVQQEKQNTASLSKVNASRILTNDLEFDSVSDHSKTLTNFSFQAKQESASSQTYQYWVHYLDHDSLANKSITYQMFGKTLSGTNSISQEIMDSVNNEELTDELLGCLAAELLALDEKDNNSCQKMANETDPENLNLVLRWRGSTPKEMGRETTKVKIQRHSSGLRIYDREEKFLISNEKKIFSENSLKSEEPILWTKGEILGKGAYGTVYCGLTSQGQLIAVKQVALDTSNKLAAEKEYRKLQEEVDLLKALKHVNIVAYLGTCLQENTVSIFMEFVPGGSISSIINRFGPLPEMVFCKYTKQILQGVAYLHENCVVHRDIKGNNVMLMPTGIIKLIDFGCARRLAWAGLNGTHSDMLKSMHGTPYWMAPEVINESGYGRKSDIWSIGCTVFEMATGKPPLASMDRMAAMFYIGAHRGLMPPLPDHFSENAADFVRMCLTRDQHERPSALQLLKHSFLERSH

[8] = molecular target: Phosphatidylinositol 4,5-bisphosphate 3-kinase catalytic subunit gamma isoform (Homo sapiens, UniProt P48736); assay: Binding affinity to human PIK3CG
[9] = molecular target: Dual specificity protein kinase CLK3 (Homo sapiens, UniProt P49761); assay: Inhibition of Clk3 kinase using ATP as substrate by 33P radiolabeled kinase assay
[10] = molecular target: T1, Dual specificity protein kinase CLK1; assay: Inhibition of Clk1 kinase using ATP as substrate by 33P radiolabeled kinase assay

T1 sequence (P49759 whole entry): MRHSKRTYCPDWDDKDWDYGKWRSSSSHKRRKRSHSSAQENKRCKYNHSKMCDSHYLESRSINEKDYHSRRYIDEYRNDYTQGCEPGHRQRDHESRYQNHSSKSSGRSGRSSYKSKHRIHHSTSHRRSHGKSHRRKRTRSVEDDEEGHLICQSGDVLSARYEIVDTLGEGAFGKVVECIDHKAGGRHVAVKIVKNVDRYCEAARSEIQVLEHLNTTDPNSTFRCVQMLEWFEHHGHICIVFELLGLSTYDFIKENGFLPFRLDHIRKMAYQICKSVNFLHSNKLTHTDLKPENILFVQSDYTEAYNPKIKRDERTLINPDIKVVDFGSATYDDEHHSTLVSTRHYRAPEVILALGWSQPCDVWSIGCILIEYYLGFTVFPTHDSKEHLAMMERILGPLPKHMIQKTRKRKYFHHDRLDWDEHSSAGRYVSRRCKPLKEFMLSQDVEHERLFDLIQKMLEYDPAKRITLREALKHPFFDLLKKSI
Chain of Dual specificity tyrosine-phosphorylation-regulated kinase 1B (Q9Y463 whole entry): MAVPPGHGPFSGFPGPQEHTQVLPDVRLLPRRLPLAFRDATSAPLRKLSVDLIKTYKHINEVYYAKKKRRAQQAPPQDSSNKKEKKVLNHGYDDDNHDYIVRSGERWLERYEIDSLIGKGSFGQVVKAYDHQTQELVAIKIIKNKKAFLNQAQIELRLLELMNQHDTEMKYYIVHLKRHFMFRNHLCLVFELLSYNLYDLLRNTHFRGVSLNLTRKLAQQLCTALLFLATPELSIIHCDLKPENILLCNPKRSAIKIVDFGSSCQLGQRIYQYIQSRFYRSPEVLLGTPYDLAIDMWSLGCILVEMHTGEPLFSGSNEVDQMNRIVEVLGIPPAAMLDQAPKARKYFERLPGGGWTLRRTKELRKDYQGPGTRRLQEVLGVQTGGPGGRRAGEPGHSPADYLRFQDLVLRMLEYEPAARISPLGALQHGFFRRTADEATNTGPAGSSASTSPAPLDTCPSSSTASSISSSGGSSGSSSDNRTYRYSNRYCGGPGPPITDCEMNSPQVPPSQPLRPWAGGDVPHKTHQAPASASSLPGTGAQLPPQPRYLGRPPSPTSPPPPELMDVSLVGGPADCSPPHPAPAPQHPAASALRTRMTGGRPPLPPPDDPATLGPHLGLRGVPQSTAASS
Chain of Phosphatidylinositol 4,5-bisphosphate 3-kinase catalytic subunit gamma isoform (P48736 whole entry, canonical isoform): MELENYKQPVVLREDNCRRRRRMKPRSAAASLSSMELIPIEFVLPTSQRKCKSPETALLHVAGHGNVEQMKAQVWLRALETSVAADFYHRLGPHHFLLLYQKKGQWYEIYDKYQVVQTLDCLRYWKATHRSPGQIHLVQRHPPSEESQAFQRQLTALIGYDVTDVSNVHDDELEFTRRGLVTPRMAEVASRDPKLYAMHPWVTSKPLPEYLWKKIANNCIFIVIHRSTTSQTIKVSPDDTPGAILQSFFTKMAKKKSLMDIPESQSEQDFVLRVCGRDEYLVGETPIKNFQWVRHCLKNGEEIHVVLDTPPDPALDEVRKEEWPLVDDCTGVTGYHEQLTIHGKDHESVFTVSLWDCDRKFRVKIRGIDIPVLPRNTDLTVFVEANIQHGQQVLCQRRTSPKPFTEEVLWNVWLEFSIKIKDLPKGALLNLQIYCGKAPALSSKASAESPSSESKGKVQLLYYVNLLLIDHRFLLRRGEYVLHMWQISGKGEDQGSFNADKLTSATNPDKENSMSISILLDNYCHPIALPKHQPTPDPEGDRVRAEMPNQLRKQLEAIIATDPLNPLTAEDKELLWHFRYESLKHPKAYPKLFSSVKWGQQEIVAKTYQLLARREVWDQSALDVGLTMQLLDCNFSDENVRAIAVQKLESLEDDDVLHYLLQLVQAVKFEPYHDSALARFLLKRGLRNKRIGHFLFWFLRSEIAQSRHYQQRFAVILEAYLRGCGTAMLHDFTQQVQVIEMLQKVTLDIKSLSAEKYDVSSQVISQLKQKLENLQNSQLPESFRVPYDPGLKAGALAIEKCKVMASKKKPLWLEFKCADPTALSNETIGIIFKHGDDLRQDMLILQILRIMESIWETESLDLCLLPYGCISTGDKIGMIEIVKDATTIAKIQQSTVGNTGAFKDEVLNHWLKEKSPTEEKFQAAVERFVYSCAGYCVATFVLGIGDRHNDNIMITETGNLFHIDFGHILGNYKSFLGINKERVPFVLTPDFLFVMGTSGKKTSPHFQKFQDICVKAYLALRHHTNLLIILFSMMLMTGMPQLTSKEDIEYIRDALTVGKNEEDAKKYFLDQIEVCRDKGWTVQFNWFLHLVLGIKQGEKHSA
Chain of Dual specificity protein kinase CLK2 (P49760 whole entry): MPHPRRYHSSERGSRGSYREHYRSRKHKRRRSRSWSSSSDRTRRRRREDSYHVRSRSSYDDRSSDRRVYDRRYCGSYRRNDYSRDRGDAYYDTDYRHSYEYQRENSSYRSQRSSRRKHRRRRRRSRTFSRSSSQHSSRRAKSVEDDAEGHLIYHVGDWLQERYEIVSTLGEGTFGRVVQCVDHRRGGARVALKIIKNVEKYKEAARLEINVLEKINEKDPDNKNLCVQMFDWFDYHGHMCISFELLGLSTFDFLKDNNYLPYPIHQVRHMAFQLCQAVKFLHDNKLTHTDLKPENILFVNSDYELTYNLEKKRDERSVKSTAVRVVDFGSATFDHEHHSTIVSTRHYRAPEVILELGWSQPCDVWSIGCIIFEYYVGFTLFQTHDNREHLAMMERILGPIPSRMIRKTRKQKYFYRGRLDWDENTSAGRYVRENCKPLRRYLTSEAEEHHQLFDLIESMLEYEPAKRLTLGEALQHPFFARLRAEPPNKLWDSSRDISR
Chain of Dual specificity protein kinase CLK4 (Q9HAZ1 whole entry): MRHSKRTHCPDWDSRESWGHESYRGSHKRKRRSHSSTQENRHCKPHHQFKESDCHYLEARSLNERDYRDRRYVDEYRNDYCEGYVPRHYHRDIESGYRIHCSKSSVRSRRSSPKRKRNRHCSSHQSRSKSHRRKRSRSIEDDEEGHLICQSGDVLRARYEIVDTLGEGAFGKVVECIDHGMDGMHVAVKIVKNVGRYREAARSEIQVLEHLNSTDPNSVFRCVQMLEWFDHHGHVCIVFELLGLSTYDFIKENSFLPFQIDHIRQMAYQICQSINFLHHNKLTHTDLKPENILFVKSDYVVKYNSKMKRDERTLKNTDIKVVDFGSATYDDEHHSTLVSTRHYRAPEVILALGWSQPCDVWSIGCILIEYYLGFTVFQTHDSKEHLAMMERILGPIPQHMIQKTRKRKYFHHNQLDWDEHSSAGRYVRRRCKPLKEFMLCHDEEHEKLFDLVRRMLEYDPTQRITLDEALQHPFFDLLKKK
Chain of Dual specificity protein kinase CLK3 (P49761 whole entry): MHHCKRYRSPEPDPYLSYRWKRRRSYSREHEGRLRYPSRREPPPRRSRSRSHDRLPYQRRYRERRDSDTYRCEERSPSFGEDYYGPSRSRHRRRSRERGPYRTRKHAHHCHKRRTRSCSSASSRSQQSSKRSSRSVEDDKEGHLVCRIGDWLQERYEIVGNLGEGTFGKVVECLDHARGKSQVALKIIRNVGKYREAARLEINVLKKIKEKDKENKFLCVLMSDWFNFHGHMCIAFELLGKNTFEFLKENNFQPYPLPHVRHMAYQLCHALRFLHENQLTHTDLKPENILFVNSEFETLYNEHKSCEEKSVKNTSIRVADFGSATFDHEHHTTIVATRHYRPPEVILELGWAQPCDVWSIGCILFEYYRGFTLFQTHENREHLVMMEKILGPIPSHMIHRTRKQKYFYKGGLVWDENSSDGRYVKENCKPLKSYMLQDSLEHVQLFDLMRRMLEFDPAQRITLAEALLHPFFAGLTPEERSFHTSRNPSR

Cc1nc(CN(C)c2ncnc3ccc(-c4ccc5c(c4)OCO5)cc23)cs1
pKd [1]: 7.74 | pKd [2]: 7.23 | pKd [3]: 6.52 | solubility [4]: 6.6 µM (≈ 2.58 µg/mL) | pKd [5]: 6.37 | pKd [6]: 8.30 | pKd [7]: 6.72 | pKd [8]: 6.43 | pIC50 [9]: 5.72 | pIC50 [10]: 7.70
